Experimental data from patent US7642350B2, “Purine derivatives” (Pfizer Limited, priority 2005, dated 2010).
Like-named read-outs stand apart in the source and are kept apart here.

What was measured:
TLR7 receptor [1] = biological target: T1, TLR7 receptor (Homo sapiens, UniProt Q9NYK1); assay: cell-based; conditions: for inhibition at 10 µM: read-out: inhibition at 10 μM
T1 sequence (Q9NYK1 27-1049): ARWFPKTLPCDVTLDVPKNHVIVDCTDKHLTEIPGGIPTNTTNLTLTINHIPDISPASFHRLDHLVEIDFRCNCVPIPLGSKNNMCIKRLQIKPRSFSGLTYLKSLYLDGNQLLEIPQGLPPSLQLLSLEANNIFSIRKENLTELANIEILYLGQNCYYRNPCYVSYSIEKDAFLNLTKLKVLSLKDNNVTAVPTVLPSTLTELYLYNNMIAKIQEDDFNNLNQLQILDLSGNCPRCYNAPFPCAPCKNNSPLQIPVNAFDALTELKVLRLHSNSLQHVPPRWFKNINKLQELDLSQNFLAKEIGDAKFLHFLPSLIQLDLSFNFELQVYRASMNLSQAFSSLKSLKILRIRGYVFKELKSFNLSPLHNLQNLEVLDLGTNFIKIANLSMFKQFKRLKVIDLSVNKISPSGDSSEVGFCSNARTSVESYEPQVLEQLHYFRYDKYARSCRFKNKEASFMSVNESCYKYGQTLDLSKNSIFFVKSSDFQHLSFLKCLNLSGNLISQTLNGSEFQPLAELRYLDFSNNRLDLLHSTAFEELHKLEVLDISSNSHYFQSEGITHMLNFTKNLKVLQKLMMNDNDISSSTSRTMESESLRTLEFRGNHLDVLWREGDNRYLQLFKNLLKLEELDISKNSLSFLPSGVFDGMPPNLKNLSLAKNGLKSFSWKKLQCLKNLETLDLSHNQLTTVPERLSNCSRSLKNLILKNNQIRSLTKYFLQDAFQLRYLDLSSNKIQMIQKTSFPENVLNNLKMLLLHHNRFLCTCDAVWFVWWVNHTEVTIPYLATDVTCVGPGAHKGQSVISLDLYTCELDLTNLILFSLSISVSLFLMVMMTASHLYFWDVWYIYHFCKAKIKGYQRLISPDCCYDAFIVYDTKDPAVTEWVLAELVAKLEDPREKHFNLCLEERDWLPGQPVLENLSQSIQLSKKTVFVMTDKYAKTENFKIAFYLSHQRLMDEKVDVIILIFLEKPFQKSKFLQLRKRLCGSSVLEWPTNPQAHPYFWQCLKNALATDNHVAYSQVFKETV
Procedure: (§1) PBL contain as a subpopulation plasmacytoid dendritic cells which are the natural interferon producing cells during an infection and as such are an excellent model in which to profile interferon inducers. As an extremely sensitive antiviral bioassay, supernatant taken from PBL is assayed for antiviral activity in the HCV replicon system.
(§2) The HCV replicon (Huh-5-2[I389luc-ubi-neo-NS3-3′/ET]) is an in vitro model of HCV replication in which the luciferase reporter is incorporated into HCV sequences and stably maintained in the human hepatoma cell line Huh-7. The firefly luciferase reporter is expressed as a luciferase-ubiquitin-neomycin phosphotransferase fusion protein which is cleaved by host proteases to release luciferase. The replicon also contains an internal EMCV IRES, which drives translation of HCV NS3-5B polyprotein, which harbour cell culture adapted mutations to permit high cloning efficiency. […] Firefly luciferase activity is detected using a Bright-Glo™ Luciferase Assay System manufactured by Promega.
(§3) An initial 3 fold serial dilution series of compounds in 100% DMSO is prepared from stocks. The dilution series is then further diluted 100 fold with complete RPMI—FCS. The final concentration of DMSO in the assay is thus 0.1% and that of the test compound is 1/1000 in the 100% DMSO dilution series.
(§4) PBL are prepared seeded at 5×10^5/well/90 μl into the previously prepared compound containing assay plates (96 well clear bottomed TC grade) and incubated for 24 h.
(§5) LucUbiNeo HCV replicon cells are seeded at 10^4/well/90 μl. These are incubated for 24 h. After 24 h 10 μl of medium is transferred from the PBL assay plates to the HCV replicon plates and incubated for a further 48 h.

TLR7 receptor [2] = biological target: T1, TLR7 receptor; conditions: read-out: EC50 (antiviral EC50); concentration of test compound applied to PBL (24 h) giving 50% reduction of HCV replicon levels after transfer of PBL medium to Huh-5-2 luciferase replicon cells (48 h)
Procedure: as §1, §2, §3, §4, §5

Compound	inhibition at 10 µM (TLR7 receptor [1]) [%]	EC50 (TLR7 receptor [1]) [nM]	EC50 (TLR7 receptor [2]) [nM]
Nc1nc(C(=O)NS(=O)(=O)c2ccccc2)nc2c1[nH]c(=O)n2Cc1ccccc1 [Example 222]	> 50	–	–
CNC(=O)c1nc(N)c2[nH]c(=O)n(Cc3ccccc3)c2n1 [Example 5]	> 50	42	–
COCCn1c(=O)[nH]c2c(N)nc(C(=O)NCc3ccccc3)nc21 [Example 33]	> 50	–	–
CCCCS(=O)(=O)NC(=O)c1nc(N)c2[nH]c(=O)n(Cc3ccccc3)c2n1 [Example 226]	> 50	–	–
CCNC(=O)c1nc(N)c2[nH]c(=O)n(Cc3ccccc3)c2n1 [Example 6]	> 50	17	–
COCCn1c(=O)[nH]c2c(N)nc(C(=O)N(C)Cc3ccccc3)nc21 [Example 36]	> 50	–	–
Nc1nc(C(=O)N2CCC2)nc2c1[nH]c(=O)n2Cc1ccccc1 [Example 4]	> 50	72	–
Nc1nc(C(=O)NCC2CC2)nc2c1[nH]c(=O)n2Cc1ccccc1 [Example 1, 6-Amino-9-benzyl-8-oxo-8,9-dihydro-7H-purine-2-carboxylic acid cyclopropylmethyl-amide]	> 50	30	–
NC(=O)c1nc(N)c2[nH]c(=O)n(Cc3ccccc3)c2n1 [Example 11]	> 50	–	–
COCCNC(=O)c1nc(N)c2[nH]c(=O)n(Cc3ccccc3)c2n1 [Example 2]	> 50	–	5
Nc1nc(C(=O)NCc2ccccc2)nc2c1[nH]c(=O)n2Cc1ccccc1 [Example 14]	> 50	–	–
Cc1ccc(S(=O)(=O)NC(=O)c2nc(N)c3[nH]c(=O)n(Cc4ccccc4)c3n2)cc1 [Example 221, 6-Amino-9-benzyl-N-(toluylsulfonyl)-8-oxo-8,9-dihydro-7H-purine-2-carboxamide]	> 50	–	–
